Patent publication US6465457B1 (priority 1991, dated 2002)
Like-named read-outs stand apart in the source and are kept apart here.

How the values were obtained:
Type in all cases: in vivo
[1] = tested on: Erysiphe graminis tritici (Wheat); assay: Foliar fungal disease test on plants: Erysiphe graminis tritici (Wheat); conditions: plants inoculated 24 hours before treatment
[2] = tested on: Septoria nodorum (Wheat); assay: Foliar fungal disease test on plants: Septoria nodorum (Wheat); conditions: one or two days before inoculation
[3] = tested on: Puccinia recondita (Wheat); assay: Foliar fungal disease test on plants: Puccinia recondita (Wheat)
[4] = tested on: Plasmopara viticola (Vines); assay: Foliar fungal disease test on plants: Plasmopara viticola (Vines); conditions: one or two days before inoculation
[5] = tested on: Phytophthora infestans (Tomatoes); conditions: one or two days before inoculation
[6] = tested on: Pyricularia oryzae (Rice); conditions: one or two days before inoculation
[7] = tested on: Venturia inaequalis (Apples); assay: Foliar fungal disease test on plants: Venturia inaequalis (Apples); conditions: one or two days before inoculation
[8] = tested on: Thanatephorus cucumeries (Rice); assay: Foliar fungal disease test on plants: Thanatephorus cucumeries (Rice); conditions: one or two days before inoculation
[9] = 100 ppm a.i. foliar spray or root drench (approx. 40 ppm in dry soil)
[10] = 100 ppm a.i. foliar spray or root drench (approx. 40 ppm in dry soil), one or two days before inoculation
[11] = 10 ppm foliar spray only, plants inoculated with Puccinia recondita 48 hours before treatment

SMILES	POCO (Percentage of Control) disease level, Erysiphe graminis tritici (Wheat) [1, 9]	POCO (Percentage of Control) disease level, Septoria nodorum (Wheat) [2, 9]	POCO (Percentage of Control) disease level, Puccinia recondita (Wheat) [3, 10]	POCO (Percentage of Control) disease level, Plasmopara viticola (Vines) [4, 9]	POCO (Percentage of Control) disease level, Phytophthora infestans (Tomatoes) [5, 9]	POCO (Percentage of Control) disease level, Pyricularia oryzae (Rice) [6, 9]	POCO (Percentage of Control) disease level, Venturia inaequalis (Apples) [7, 9]	POCO (Percentage of Control) disease level, Thanatephorus cucumeries (Rice) [8, 9]	POCO (Percentage of Control) disease level, Erysiphe graminis tritici (Wheat) ([1]; 10 ppm foliar spray only)	POCO (Percentage of Control) disease level, Septoria nodorum (Wheat) ([2]; 10 ppm foliar spray only)	POCO (Percentage of Control) disease level, Puccinia recondita (Wheat) [3, 11]	POCO (Percentage of Control) disease level, Plasmopara viticola (Vines) ([4]; 10 ppm foliar spray only)	POCO (Percentage of Control) disease level, Phytophthora infestans (Tomatoes) ([5]; 10 ppm foliar spray only)	POCO (Percentage of Control) disease level, Pyricularia oryzae (Rice) ([6]; 10 ppm foliar spray only)	POCO (Percentage of Control) disease level, Venturia inaequalis (Apples) ([7]; 10 ppm foliar spray only)	POCO (Percentage of Control) disease level, Thanatephorus cucumeries (Rice) ([8]; 10 ppm foliar spray only)	POCO (Percentage of Control) disease level, Puccinia recondita (Wheat) ([3]; 100 ppm a.i. foliar spray or root drench, plants inoculated with Puccinia recondita 48 hours before treatment)
CO/C=C(/C(=O)OC)c1ccccc1COC(=O)Nc1ccccc1 [5 (1), (E)-methyl 3-methoxy-2-[2-((phenyl)carbamoyloxymethyl)phenyl]propenoate]	60 (60 = 30.1-60% disease present)	30 (30 = 20.1-30% disease present)	60 (60 = 30.1-60% disease present)	5 (5 = 3.1-5% disease present)	60 (60 = 30.1-60% disease present)	10 (10 = 5.1-10% disease present)	30 (30 = 20.1-30% disease present)	60 (60 = 30.1-60% disease present)									
COC=C(C(=O)OC)c1ccccc1COC(=S)Oc1ccccc1 [5 (12)]									60 (60 = 30.1-60% disease present)	90 (90 and 94 = 60.1-100% disease present)	90+ (90 and 94 = 60.1-100% disease present)	3 (3 = 1.1-3% disease present)	90 (90 and 94 = 60.1-100% disease present)	60 (60 = 30.1-60% disease present)	0 (0 = 0% disease present)	60 (60 = 30.1-60% disease present)	
CNC(=O)C(=NOC)c1ccccc1COC(=O)Nc1ccccc1 [5 (65)]									30 (30 = 20.1-30% disease present)	90 (90 and 94 = 60.1-100% disease present)	90+ (90 and 94 = 60.1-100% disease present)	90 (90 and 94 = 60.1-100% disease present)	90 (90 and 94 = 60.1-100% disease present)	30 (30 = 20.1-30% disease present)	90 (90 and 94 = 60.1-100% disease present)	90 (90 and 94 = 60.1-100% disease present)	
CNC(=O)C(=NOC)c1ccccc1COC(=O)N(C)c1ccccc1 [5 (66)]	0 (0 = 0% disease present)	5 (5 = 3.1-5% disease present)		0 (0 = 0% disease present)	0 (0 = 0% disease present)	0 (0 = 0% disease present)	0 (0 = 0% disease present)	0 (0 = 0% disease present)									10+ (10 = 5.1-10% disease present)
COC=C(C(=O)OC)c1ccccc1COC(=O)N1CCc2ccccc21 [5 (133)]									60 (60 = 30.1-60% disease present)	90 (90 and 94 = 60.1-100% disease present)	90+ (90 and 94 = 60.1-100% disease present)	90 (90 and 94 = 60.1-100% disease present)	90 (90 and 94 = 60.1-100% disease present)	90 (90 and 94 = 60.1-100% disease present)	90 (90 and 94 = 60.1-100% disease present)	90 (90 and 94 = 60.1-100% disease present)	
COC=C(C(=O)OC)c1ccccc1COC(=O)Nc1cccc([N+](=O)[O-])c1 [6 (1)]	90 (90 and 94 = 60.1-100% disease present)	30 (30 = 20.1-30% disease present)	90 (90 and 94 = 60.1-100% disease present)	90 (90 and 94 = 60.1-100% disease present)	60 (60 = 30.1-60% disease present)	90 (90 and 94 = 60.1-100% disease present)	60 (60 = 30.1-60% disease present)	90 (90 and 94 = 60.1-100% disease present)									
